Consider seven compounds from ChEMBL document CHEMBL1201862, “PubChem BioAssay data set” (2004).

Among the test systems are 786-0; A549; ACHN; CAKI-1; CCRF-CEM; HT-29; IGROV-1; KM12; M14; Malme-3M; NCI-H460; NCI-H522; NCI/ADR-RES; OVCAR-4; SF-268; SF-295; SK-OV-3; SW-620; T47D; UACC-62.
What all share (experiment): NCI-60 cell line screen, 48 h

Structures are written as SMILES.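 Tested at 5 concentrations; 48 h exposure; 96-well plates; endpoints linearly interpolated, else capped at highest concentration. GI50 is the concentration that inhibits growth by half.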 Active and inactive are the calls of the source. No stated cut-off is given here; in the data, active = GI50 up to about 1.1 µM and inactive = higher.

`FC(F)(F)c1ccc2nc(Sc3ccccn3)cnc2c1`: the GI50 is 23.5 µM (inactive) in the experiment on 786-0; 38.8 µM (inactive) in the experiment on A549; 16.7 µM (inactive) with ACHN; 62.4 µM (inactive) in the experiment with CAKI-1; 2.94 µM (inactive) in the experiment on CCRF-CEM; 51.8 µM (inactive) in the experiment with HT-29. Further, the GI50 in the experiment on IGROV-1 is 75.5 µM (inactive); in the experiment on KM12, 88.7 µM (inactive); in the experiment on M14 it was 48 µM (inactive); in the experiment with Malme-3M, > 100 µM (inactive); in the experiment on NCI-H460 it was 48.4 µM (inactive); in the experiment with NCI-H522, 21.7 µM (inactive). Also, the GI50 with NCI/ADR-RES is 37.4 µM (inactive); in the experiment on OVCAR-4 it was 79.8 µM (inactive); in the experiment on SF-268, 49.2 µM (inactive); in the experiment on SF-295, 60.1 µM (inactive); in the experiment on SK-OV-3, 33.8 µM (inactive); in the experiment on SW-620 it was 34.4 µM (inactive). The GI50 with T47D is 28 µM (inactive); in the experiment with UACC-62, 29.2 µM (inactive).
`CC(=O)Oc1ccc(/C=C/C(=O)O[C@H]2CCCC[C@@H]2OC(=O)/C=C/c2ccc(OC(C)=O)c(OC(C)=O)c2)cc1OC(C)=O`: the GI50 is 4.57 µM (inactive) in the experiment with 786-0; 6.87 µM (inactive) in the experiment with A549; 5.83 µM (inactive) in the experiment with ACHN; 5.41 µM (inactive) in the experiment on CAKI-1; 2.75 µM (inactive) in the experiment on CCRF-CEM; 5.47 µM (inactive) in the experiment on HT-29. Moreover, the GI50 in the experiment on IGROV-1 is 4.09 µM (inactive); with KM12, 8.75 µM (inactive); with M14, 7.14 µM (inactive); with Malme-3M, 15.6 µM (inactive); with NCI-H460, 3.85 µM (inactive); in the experiment on NCI-H522, 2.81 µM (inactive). Also, the GI50 with NCI/ADR-RES is 19.2 µM (inactive); in the experiment with OVCAR-4, 7.08 µM (inactive); in the experiment with SF-268, 8.17 µM (inactive); in the experiment with SF-295, 4.37 µM (inactive); with SK-OV-3, 11.8 µM (inactive); with SW-620 it was 2.24 µM (inactive). Also, the GI50 was 11.5 µM (inactive) in the experiment on T47D and 4.84 µM (inactive) in the experiment on UACC-62.
For the compound `c1ccc2c(c1)Nc1c3ccccc3nc3cccc-2c13`, the GI50 with 786-0 is 0.638 µM (active); with A549, 1.05 µM (active); in the experiment with ACHN, 0.818 µM (active); in the experiment with CAKI-1, 1.08 µM (active); in the experiment with CCRF-CEM, 0.305 µM (active); in the experiment on HT-29 it was 0.546 µM (active). Moreover, the GI50 with IGROV-1 is 1.21 µM (inactive); in the experiment on KM12, 1.12 µM (active); with M14, 1.76 µM (inactive); with Malme-3M, 1.66 µM (inactive); in the experiment with NCI-H460, 0.378 µM (active); with NCI-H522, 1.23 µM (inactive). Further, the GI50 is 1.05 µM (active) in the experiment with NCI/ADR-RES; 1.15 µM (inactive) with OVCAR-4; 1.49 µM (inactive) in the experiment on SF-268; 1.17 µM (inactive) in the experiment on SF-295; 1.35 µM (inactive) with SK-OV-3; 0.283 µM (active) in the experiment on SW-620. The GI50 in the experiment on T47D was 2.06 µM (inactive); in the experiment on UACC-62, 1.63 µM (inactive).
As for `CC(=O)NNc1nc(C)c(C(/C=C/c2ccccc2O)=N/N=C(N)N)s1`, the GI50 in the experiment with 786-0, in the experiment on A549, with ACHN, in the experiment on CAKI-1, in the experiment on CCRF-CEM and with HT-29 was > 100 µM (inactive) in each case. Further, the GI50 in the experiment with IGROV-1, with KM12, in the experiment with M14, with Malme-3M, in the experiment on NCI-H460 and in the experiment on NCI-H522 was > 100 µM (inactive) each time. Also, the GI50 in the experiment with NCI/ADR-RES, with OVCAR-4, in the experiment on SF-268, with SF-295, in the experiment with SK-OV-3 and with SW-620 was > 100 µM (inactive) throughout. The GI50 in the experiment with T47D and in the experiment on UACC-62 was > 100 µM (inactive) each time.
Regarding `COC(=O)/C=C\C(C#N)(C#N)/N=C/c1sccc1C`, the GI50 with 786-0 is 1.94 µM (inactive); with A549, 15 µM (inactive); with ACHN, 1.87 µM (inactive); in the experiment on CAKI-1 it was 1.93 µM (inactive); in the experiment on CCRF-CEM, 1 µM (active); with HT-29, 1.73 µM (inactive). Also, the GI50 in the experiment on IGROV-1 was 15 µM (inactive); with KM12 it was 16.2 µM (inactive); with M14 it was 2.28 µM (inactive); in the experiment on Malme-3M it was 3.18 µM (inactive); with NCI-H460 it was 16.4 µM (inactive); with NCI-H522 it was 0.268 µM (active). The GI50 in the experiment on NCI/ADR-RES is 11.8 µM (inactive); in the experiment with OVCAR-4, 4.53 µM (inactive); with SF-268, 12.3 µM (inactive); with SF-295 it was 18.2 µM (inactive); with SK-OV-3, 18.4 µM (inactive); with SW-620, 1.58 µM (inactive). Also, the results for the GI50 in the experiment on T47D and with UACC-62 were 2.62 µM (inactive) and 6.62 µM (inactive), respectively.
As for `O=C1CCC2(CCO1)OCCO2`, the GI50 with 786-0, in the experiment with A549, with ACHN, in the experiment with CAKI-1, in the experiment on CCRF-CEM and in the experiment with HT-29 was > 100 µM (inactive) each time. In addition, the GI50 with IGROV-1, with KM12, in the experiment with M14, in the experiment on Malme-3M, in the experiment on NCI-H460 and with NCI-H522 was > 100 µM (inactive) each time. The GI50 in the experiment on NCI/ADR-RES, with OVCAR-4, in the experiment on SF-268, in the experiment with SF-295, in the experiment with SK-OV-3 and in the experiment with SW-620 was > 100 µM (inactive) each time. In addition, the GI50 with T47D and in the experiment on UACC-62 was > 100 µM (inactive) each time.
In the case of `CC(C)(C)NCCC(O)c1cc(C(F)(F)F)nc2c(C(F)(F)F)cccc12` (stereo not given), the GI50 was 6.98 µM (inactive) in the experiment on 786-0; 4.38 µM (inactive) with A549; 8.3 µM (inactive) in the experiment with ACHN; 4.25 µM (inactive) in the experiment with CAKI-1; 5.57 µM (inactive) in the experiment with CCRF-CEM; 6.08 µM (inactive) with HT-29. In addition, the GI50 in the experiment with IGROV-1 was 10.3 µM (inactive); in the experiment with KM12, 2.77 µM (inactive); in the experiment with M14, 7.83 µM (inactive); in the experiment on Malme-3M, 11.6 µM (inactive); in the experiment with NCI-H460, 4.83 µM (inactive); in the experiment with NCI-H522 it was 11.7 µM (inactive). For the same compound, the GI50 was 5.97 µM (inactive) in the experiment with NCI/ADR-RES; 12.3 µM (inactive) in the experiment on OVCAR-4; 11.4 µM (inactive) with SF-268; 8.75 µM (inactive) in the experiment on SF-295; 16.2 µM (inactive) in the experiment on SK-OV-3; 18 µM (inactive) in the experiment with SW-620. Also, the GI50 with T47D was 14.3 µM (inactive); in the experiment with UACC-62, 12.6 µM (inactive).
